Tests used:
[1] = FTNIR / HPLC analysis of creatine and creatinine, as is or dry basis; type: physicochemical; details: before digestion simulation
Procedure: Tests on the coated Tablet prepared as described in Example 2 but with addition of 6% by tablet weight of PV/AP, creatine monohydrate powder and capsules of creatine monohydrate were carried out
These tests were done on an "AS IS or DRY BASIS.
Identification performed by FINIR, against in-house external library standards obtained from Sigma & produced by HPLC. / Quantification by FTNIR against external library standards obtained from Sigma & produced by HPLC
Bran & Luebbe InfraProver II FTNIR
Analysis performed by HPLC using Intersil ODS-2 5um (250x4.dmm) and 25 min. gradient elution with 0.1% phosphoric acid buffer in H2O and 0.1% phosphoric acid in acetonitrile. External reference standards obtained from Sigma-Aldrich.

[2] = Stamina and strength of athletes taking creatine (free weights and hammer strength machines); type: in vivo, human; details: two subjects
Procedure: Week 1-4: Two subjects were administered creatine monohydrate in powder form for four weeks. 2 grams were taken in the A.M. before breakfast.
No changes were made to diet and athletes were working out 4 times per week.
Stamina & Strength levels were monitored at the beginning of the study and every workout for 4 weeks.
A combination of free weights and hammer strength machines were used.
Week 5-8. Athletes discontinued creatine use. After 1 week the stomach bloat, bloating of the ankles and wrist, along with diarrhea and loose stools disappeared. About a 1% increase in strength was again noticed by the end of week 8, due to old fashioned hard work.
Week 9-12. Athletes were administered one 750 mg sustained released tablet in the a.m. and one 750 mg tablet in the afternoon. The breakdown of these tablets were 9 hours.

[3] = Digestion simulation in stomacher at pH 3 for 60 minutes, total creatine and creatinine levels; type: physicochemical
Procedure: 1 capsule of creatine (500 mg) and 500 mg of powder was used along with 1 tablet of 500 mg of Sustained Released Creatine.
All 3 products were placed in a stomacher at pH 3 for 60 minutes to simulate digestion. Stomacher contained 1 liter of fluid with pH being adjusted with hydrochloric acid to simulate digestion.
After 60 minutes of digestion simulation in stomacher, all 3 products were tested for: • Total Creatine levels • Total Creatinine levels

physchem = type: physicochemical; details: simulated gastric solution, pH 4
Procedure: TABLE 2 Change in creatine with time at pH 4
The determination was based upon formation of creatinine under buffered incubation conditions. A solution of 1% creatine in simulated gastric solution (0.5% betain/pepsin in 1M HEPES buffer pH controlled with 5M HC1 and 5N NaOH). Creatinine determination performed by PDA spectrophotometer in kinetic mode, scanning at 15 sec intervals with an integration time of 0.5 sec. Detection in 1 cm path length flow call at 37°C with test analyte flowing at 1 ml/min. Reagents obtained from Sigma-Aldrich.

[4] = 2 grams in the A.M. before breakfast, week 1-4

CN(CC(=O)O)C(=N)N.O [Creatine Powder, creatine monohydrate]
Creatine [1]: Creatine 100.1% | Creatinine [1]: Creatinine <200ppm | side effects [2, 4]: Stomach bloating, bloating of the ankles and wrist, along with diarrhea and loose stools | stamina increase [2, 4]: did not notice any stamina increase | increase in strength ([2]; 2 grams in the A.M. before breakfast, week 1-4, not attributed to creatine): ~1% | over all sense of tiredness ([2]; 2 grams in the A.M., week two through week four): set in after week two and lasted through week four | pH of Stomacher after addition of product ([3]; 500 mg elemental creatine added to stomacher at pH 3, 1 liter of fluid): 3.5 | creatine converted to creatinine after 60 minutes (in words) ([3]; 500 mg, stomacher at pH 3, 60 minutes): all creatine being converted to creatinine | degraded at 1 h ([3]; acidified fluid, 500 mg elemental creatine, stomacher at pH 3, 60 minutes, read-out: Total conversion to Creatinine after 60 minutes of digestion): 100%

CN(CC(=O)O)C(=N)N [creatine]
remaining at 15 s (physchem): 94% | remaining at 0.5 min (physchem): 86% | remaining at 45 s (physchem): 75% | remaining at 1 min (physchem): 66% | remaining at 75 s (physchem): 57% | remaining at 0.025 h (physchem): 49% | remaining at 105 s (physchem): 38% | remaining at 2 min (physchem): 31% | remaining at 135 s (physchem): 21% | remaining at 2.5 min (physchem): 16% | remaining at 165 s (physchem): 6% | remaining at 0.05 h (physchem): 0.5%
